From patent publication US20110201564A1, “SUBSTITUTED 7-SULFANYLMETHYL, 7-SULFINYLMETHYL AND 7-SULFONYLMETHYL INDOLES AND USE THEREOF” (BAYER SCHERING PHARMA AKTIENGESELLSCHAFT, priority 2008, published 2011)
pIC50: −log10 of the molar value. Like-named read-outs stand apart in the source and are kept apart here.

Key:
[1] = biological target: T1, human mineralocorticoid receptor (MR) (Homo sapiens, UniProt P08235); experiment: Cellular in vitro assay, GAL4-MR chimera luciferase reporter in CHO K1 cells (inhibitory MR activity); format: cell-based; settings: antagonism vs aldosterone; CHO K1 GAL4-MR LBD luciferase reporter
T1 construct: expressed in transfected cells; host or cells: CHO K1
T1 sequence (P08235 734-984 limits assumed): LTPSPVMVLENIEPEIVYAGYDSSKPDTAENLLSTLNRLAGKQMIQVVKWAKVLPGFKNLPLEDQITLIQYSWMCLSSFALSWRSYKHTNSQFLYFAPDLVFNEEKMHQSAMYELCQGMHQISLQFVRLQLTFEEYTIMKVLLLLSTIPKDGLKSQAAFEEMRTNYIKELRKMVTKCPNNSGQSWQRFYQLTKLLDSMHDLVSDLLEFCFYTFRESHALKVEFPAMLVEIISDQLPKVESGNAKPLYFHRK
From the text: (§1) 1. Cellular In Vitro Assay to Determine the Inhibitory MR Activity and MR Selectivity Compared with Other Steroid Hormone Receptors
(§2) Antagonists of the human mineralocorticoid receptor (MR) are identified, and the activity of the compounds described herein is quantified with the aid of a recombinant cell line. The cell is originally derived from a hamster ovary epithelial cell (Chinese Hamster Ovary, CHO K1, ATCC: American Type Culture Collection, VA 20108, USA).
(§3) An established chimera system in which the ligand-binding domains of human steroid hormone receptors are fused to the DNA-binding domain of the yeast transcription factor GAL4 is used in this CHO K1 cell line. The GAL4-steroid hormone receptor chimeras produced in this way are cotransfected and stably expressed with a reporter construct in the CHO cells.
(§4) To generate the GAL4-steroid hormone receptor chimeras, the GAL4 DNA-binding domain (amino acids 1-147) from the vector pFC2-dbd (from Stratagene) is cloned with the PCR-amplified ligand-binding domains of the mineralocorticoid receptor (MR, amino acids 734-985), of the progesterone receptor (PR, amino acids 680-933) and of the androgen receptor (AR, amino acids 667-919) into the vector pIRES2 (from Clontech). The reporter construct, which comprises five copies of the GAL4 binding site upstream of a thymidine kinase promoter, leads to expression of firefly luciferase (Photinus pyralis) after activation and binding of the GAL4-steroid hormone receptor chimeras by the respective specific agonists aldosterone (MR), dexamethasone (GR), progesterone (PR) and dihydrotestosterone (AR).
(§5) The MR, PR and AR cells are plated out in medium (Optimem, 2.5% FCS, 2 mM glutamine, 10 mM HEPES) in 96- (or 384- or 1536-)well microtiter plates on the day before the assay and are kept in a cell incubator (96% humidity, 5% v/v CO2, 37° C.). On the day of the assay, the substances to be tested are taken up in the abovementioned medium and added to the cells. About 10 to 30 minutes after addition of the test substances, the respective specific agonists of the steroid hormone receptors are added. After a further incubation time of 5 to 6 hours, the luciferase activity is measured with the aid of a video camera. The measured relative light units as a function of the substance concentration result in a sigmoidal stimulation curve. The IC50 values are calculated with the aid of the GraphPad PRISM computer program (Version 3.02).

[2] = biological target: T2, progesterone receptor (PR) (Homo sapiens, UniProt P06401); experiment: Cellular in vitro assay, GAL4-PR chimera luciferase reporter in CHO K1 cells (selectivity); format: cell-based; settings: antagonism vs progesterone; CHO K1 GAL4-PR LBD luciferase reporter
T2 construct: of the progesterone receptor (PR, amino acids 680-933); expressed in transfected cells; host or cells: CHO K1
T2 sequence (P06401 680-933): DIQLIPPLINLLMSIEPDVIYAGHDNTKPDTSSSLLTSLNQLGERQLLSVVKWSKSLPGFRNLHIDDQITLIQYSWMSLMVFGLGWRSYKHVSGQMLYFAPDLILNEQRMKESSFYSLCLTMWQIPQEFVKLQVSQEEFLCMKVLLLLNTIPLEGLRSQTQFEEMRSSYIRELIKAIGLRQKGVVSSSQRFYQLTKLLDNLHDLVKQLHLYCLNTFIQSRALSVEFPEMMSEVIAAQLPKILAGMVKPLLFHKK
From the text: as §1, §2, §3, §4, §5

CYP3A4 = biological target: T3, CYP3A4 (Homo sapiens, UniProt P08684); experiment: CYP inhibition assay with human liver microsomes; format: in vitro ADME
T3 construct: using human liver microsomes (pool from various individuals); from tissue; host or cells: human liver microsomes (pool from various individuals)
From the text: Inhibitory properties of an active ingredient on the cytochromes P450 (CYP) of the human body may entail extensive clinical effects (drug interactions) because most of the prescribed medicaments are degraded (metabolized) by these enzymes. The ones involved in this are in particular the CYP isoenzymes of the 1A and 2C families, CYP2D6 and, with a proportion of almost 50%, CYP3A4. In order to preclude or minimize these possible drug interactions (Drug-Drug Interactions, DDI), the ability of substances to be able to inhibit CYP1A2, CYP2C8, CYP2C9, CYP2D6 and CYP3A4 in humans is investigated using human liver microsomes (pool from various individuals). This takes place by measuring CYP isoform-specific metabolites formed from standard substrates such as, for example, phenacetin, amodiaquin, diclofenac, dextromethorphan, midazolam and testosterone. The inhibitory effects are investigated at six different concentrations of the test compounds (1.5, 3.1, 6.3, 12.5, 25 and 50 μM as maximum concentration or 0.6, 1.3, 2.5, 5, 10 and 20 μM as maximum concentration), comparing with the extent of the CYP isoform-specific metabolite formation of the standard substrates in the absence of the test compounds, and calculating the corresponding IC50 values. CYP isoform-specific standard inhibitors such as, for example, fluvoxamine, quercetin, sulfaphenazole, fluoxetine and ketoconazole serve as control of the results obtained. In order to obtain indications of the possible mechanism-based inhibitors (MBI) on CYP3A4, the human liver microsomes are incubated in the presence of the inhibitor to be investigated for 30 minutes before the addition of midazolam or testosterone as standard substrates of CYP3A4. A reduction in the IC50 obtained by comparison with the mixture without preincubation serves as an indicator of a mechanism-based inhibition. Mibefradil serves as positive control.
The incubations of the standard substrates with human liver microsomes (23-233 μg/mL) in the presence of the test compound (as potential inhibitor) are carried out in 96-well plates in a workstation (Tecan, Genesis, Crailsheim, Germany) at 37° C. The incubation times are 15-20 minutes. The test compounds are preferably dissolved in acetonitrile (1.0 or 2.5 mM stock solution). The 96-well plates are produced by sequential addition of a stock solution of NADP+, EDTA, glucose 6-phosphate and glucose-6-phosphate dehydrogenase in phosphate buffer (pH 7.4), the test compound, and a solution of standard substrate and human liver microsomes in phosphate buffer (pH 7.4). The total volume is 200 μl. The corresponding control incubations with and without standard inhibitor also take place on the 96-well plate. The incubations are stopped after the respective incubation time by adding 100 μl of acetonitrile in which there is a suitable internal standard. Precipitated proteins are removed by centrifugation (3000 rpm, 10 minutes, 10° C.). The resulting supernatants of the respective plates are combined on one plate and analyzed by LC-MS/MS. The […] values are generated from the resulting measured data and used to assess the inhibitory potential of the test compound.

androgen receptor (AR) = biological target: T4, androgen receptor (AR) (Homo sapiens, UniProt P10275); experiment: Cellular in vitro assay, GAL4-AR chimera luciferase reporter in CHO K1 cells (selectivity); format: cell-based; settings: antagonism vs dihydrotestosterone; CHO K1 GAL4-AR LBD luciferase reporter
T4 construct: of the androgen receptor (AR, amino acids 667-919); expressed in transfected cells; host or cells: CHO K1
T4 sequence (P10275 668-920): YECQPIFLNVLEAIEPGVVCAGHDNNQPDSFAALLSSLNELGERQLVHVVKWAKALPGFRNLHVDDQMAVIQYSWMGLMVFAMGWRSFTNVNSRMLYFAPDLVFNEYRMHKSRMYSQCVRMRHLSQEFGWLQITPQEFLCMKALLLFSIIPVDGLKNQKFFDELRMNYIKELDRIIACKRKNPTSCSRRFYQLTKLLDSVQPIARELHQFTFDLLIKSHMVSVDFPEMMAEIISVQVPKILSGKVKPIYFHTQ
From the text: as §1, §2, §3, §4, §5

[3] = 30 min preincubation with test compound before substrate, read-out: CYP 3A4 Preincubation, 30 min.
[4] = without preincubation, read-out: CYP 3A4 Coincubation

T3 sequence (P08684 whole entry): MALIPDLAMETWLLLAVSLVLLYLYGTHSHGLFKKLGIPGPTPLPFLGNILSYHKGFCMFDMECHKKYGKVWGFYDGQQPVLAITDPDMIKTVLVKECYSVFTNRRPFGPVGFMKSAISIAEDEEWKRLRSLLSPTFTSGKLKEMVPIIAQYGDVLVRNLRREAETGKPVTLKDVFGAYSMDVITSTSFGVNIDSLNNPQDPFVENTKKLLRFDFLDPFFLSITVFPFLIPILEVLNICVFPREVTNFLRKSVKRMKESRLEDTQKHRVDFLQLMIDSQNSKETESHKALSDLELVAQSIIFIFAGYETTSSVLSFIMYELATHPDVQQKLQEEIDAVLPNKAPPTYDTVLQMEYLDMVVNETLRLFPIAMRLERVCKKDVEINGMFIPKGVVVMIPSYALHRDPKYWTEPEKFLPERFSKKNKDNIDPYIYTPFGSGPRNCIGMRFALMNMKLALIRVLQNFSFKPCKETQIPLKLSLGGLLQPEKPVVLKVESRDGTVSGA

CS(=O)(=O)Cc1cccc2c(C(c3ccc(Cl)cc3)C3CC3C#N)c[nH]c12 (centres unmarked) [Example 276, 2-[(4-Chlorophenyl){7-[(methylsulfonyl)methyl]-1H-indol-3-yl}methyl]cyclopropanecarbonitrile]
pIC50 [1]: 7.62
pIC50 [2]: 5.00
pIC50 (CYP3A4; [3]): 4.74
pIC50 (CYP3A4; [4]): < 4.70

Cc1ccc(C(CCC#N)c2c[nH]c3c(CS(C)(=O)=O)cccc23)cc1 (centres unmarked) [Example 166, 4-(4-Methylphenyl)-4-{7-[(methylsulfonyl)methyl]-1H-indol-3-yl}butanonitrile]
pIC50 [1]: 6.66
pIC50 [2]: 5.00
pIC50 (CYP3A4; [3]): 4.75
pIC50 (CYP3A4; [4]): < 4.70

CC(c1ccc(Cl)cc1)(c1c[nH]c2c(CS(C)(=O)=O)cccc12)C1CC1C#N (centres unmarked) [Example 106, 2-[1-(4-Chlorophenyl)-1-{7-[(methylsulfonyl)methyl]-1H-indol-3-yl}ethyl]cyclopropanecarbonitrile]
pIC50 [1]: 7.40
pIC50 (androgen receptor (AR)): 5.27
pIC50 [2]: 4.93

C[S+]([O-])Cc1cccc2c(C(C)(c3ccc(Cl)cc3F)C3CC3)c[nH]c12 (mixture of isomers) [Example 124, 3-[1-(4-Chloro-2-fluorophenyl)-1-cyclopropylethyl]-7-[(methylsulfinyl)methyl]-1H-indole]
pIC50 [1]: 6.92
pIC50 (androgen receptor (AR)): 5.16
pIC50 [2]: 5.09

CSCc1cccc2c(C(c3ccc(F)cc3)c3ccc(Cl)cc3F)c[nH]c12 (centres unmarked) [Example 104, 3-[(4-Chloro-2-fluorophenyl)(4-fluorophenyl)methyl]-7-[(methylsulfanyl)methyl]-1H-indole]
pIC50 [1]: 7.00
pIC50 (androgen receptor (AR)): 5.30
pIC50 [2]: 5.07

CSCc1cccc2c(C(c3ccc(F)cc3)c3ccc(Cl)cc3)c[nH]c12 (centres unmarked) [Example 100, 3-[(4-Chlorophenyl)(4-fluorophenyl)methyl]-7-[(methylsulfanyl)methyl]-1H-indole]
pIC50 [1]: 6.34
pIC50 (androgen receptor (AR)): 5.28
pIC50 [2]: 5.00

CS(=O)(=O)Cc1cccc2c(C(CCC#N)c3ccc(Cl)cc3Cl)c[nH]c12 (centres unmarked) [Example 62, 4-(2,4-Dichlorophenyl)-4-{7-[(methylsulfonyl)methyl]-1H-indol-3-yl}butanonitrile]
pIC50 [1]: 7.22
pIC50 (androgen receptor (AR)): 5.15
pIC50 [2]: 4.89

C[S+]([O-])Cc1cccc2c(C(CCC#N)c3ccc(Cl)cc3)c[nH]c12 (single isomer, unassigned) [Example 78-4, 4-(4-Chlorophenyl)-4-{7-[(methylsulfinyl)methyl]-1H-indol-3-yl}butanonitrile]
pIC50 [1]: 6.82
pIC50 (androgen receptor (AR)): 5.05
pIC50 [2]: 5.10

CCC(CCC#N)(c1ccc(Cl)cc1)c1c[nH]c2c(C[S+](C)[O-])cccc12 (mixture of isomers) [Example 163, 4-(4-Chlorophenyl)-4-{7-[(methylsulfinyl)methyl]-1H-indol-3-yl}hexanonitrile]
pIC50 [1]: 7.54
pIC50 (androgen receptor (AR)): 5.32
pIC50 [2]: 5.57

C[S+]([O-])Cc1cccc2c(C(c3ccc(F)cc3)c3ccc(Cl)cc3F)c[nH]c12 (mixture of isomers) [Example 130, 3-[(4-Chloro-2-fluorophenyl)(4-fluorophenyl)methyl]-7-[(methylsulfinyl)methyl]-1H-indole]
pIC50 [1]: 7.00
pIC50 (androgen receptor (AR)): 5.24
pIC50 [2]: 5.05

CS(=O)(=O)Cc1cccc2c(C(c3ccc(Cl)cc3Cl)C3CC3(F)F)c[nH]c12 (single isomer, unassigned) [Example 325-2, 3-[(2,4-Dichlorophenyl)(2,2-difluorocyclopropyl)methyl]-7-[(methylsulfonyl)methyl]-1H-indole]
pIC50 [1]: 7.23
pIC50 (androgen receptor (AR)): 5.28
pIC50 [2]: 5.18

CS(=O)(=O)Cc1cccc2c(C(CCC#N)c3ccc(C(F)(F)F)cc3F)c[nH]c12 (centres unmarked) [Example 68, 4-[2-Fluoro-4-(trifluoromethyl)phenyl]-4-{7-[(methylsulfonyl)methyl]-1H-indol-3-yl}butanonitrile]
pIC50 [1]: 6.72
pIC50 (androgen receptor (AR)): 5.29
pIC50 [2]: 5.41

CS(=O)(=O)Cc1cccc2c(C(c3ccc(C(F)(F)F)cc3)C3CC3)c[nH]c12 (centres unmarked) [Example 244, 3-{Cyclopropyl[4-(trifluoromethyl)phenyl]methyl}-7-[(methylsulfonyl)methyl]-1H-indole]
pIC50 [1]: 6.77
pIC50 (CYP3A4; [3]): < 4.70
pIC50 (CYP3A4; [4]): < 4.70

CSCc1cc(F)cc2c(C(C)(c3ccc(Cl)cc3)C3CC3C#N)c[nH]c12 (centres unmarked) [Example 179, 2-[1-(4-Chlorophenyl)-1-{5-fluoro-7-[(methylsulfanyl)methyl]-1H-indol-3-yl}ethyl]cyclopropanecarbonitrile]
pIC50 [1]: 7.00
pIC50 (androgen receptor (AR)): 5.69
pIC50 [2]: 5.71

CS(=O)(=O)Cc1cccc2c(C(CCC#N)c3ccc4ccccc4c3)c[nH]c12 (centres unmarked) [Example 69, 4-{7-[(Methylsulfonyl)methyl]-1H-indol-3-yl}-4-(naphthalen-2-yl)butanonitrile]
pIC50 [1]: 6.38
pIC50 (androgen receptor (AR)): 5.28
pIC50 [2]: 5.18
